# Measurements published in patent US5959130A, “Castor based benzoate esters” (Finetex, Inc., priority 1997, dated 1999).
# Experiments:
# Type in all cases: physicochemical
# [1] = viscosity readings of titanium dioxide dispersions, Table VI B; conditions: Brookfield LVT-D @ 12 RPM, TiO2 50%
# [2] = refractive index of benzoate esters compared to precursors, Table V; conditions: 25° C.
# [3] = Hagman readings (particle size), titanium dioxide dispersion, Table VI A; conditions: TiO2 50%
# Experimental: (§1) The novel benzoate esters of the invention were tested for pigment and dye dispersing efficacy. Color pastes were prepared by dispersing dry pigment into the oil phase while hand stirring and then passing each mixture through a three roll mill six times, collecting a 16 oz. sample after each pass. The samples collected were subjected to particle size measurements.
# [4] = viscosity readings of Red No. 21 dispersions, Table VI B; conditions: Brookfield LVT-D @ 12 RPM, Red No. 21 35%
# [5] = Hagman readings (particle size), Red No. 21 dispersion, Table VI A; conditions: Red No. 21 35%
# Experimental: as §1
# [6] = sunscreen solubility: PARSOL 1789, Table IV B
# Excerpt: (§2) These two sunscreens are difficult to dissolve and keep in solution for use in sunscreen formulations for optimal SPF (sun-protection factors). Higher solvency for a sunscreen ingredient is desirable as it allows higher concentrations of the sunscreen active ingredient in a formulation. This advantageously raises the SPF ratings for the formulation. The liquid organic sunscreens that are commonly used are octyl-methoxy cinnamate (OMC) and octyl salicylate (OS).
# (§3) Solubility/Solvency Tables IVA and IVB show the solubility and concentrations of the sunscreen ingredient in the novel esters of the invention compared to their precursor raw materials (non-benzoate esters).
# [7] = physical properties of benzoate esters compared to precursors, Table II
# Excerpt: Absence of odor is an important factor in consumer acceptance of cosmetic and toiletry products.
# [8] = sunscreen solubility: Benzophenone-3, Table IV A
# Excerpt: as §2, §3
# [9] = Hagman readings (particle size), Red No. 6 Barium Lake dispersion, Table VI A; conditions: Red No. 6 Barium Lake 35%
# Experimental: as §1
# [10] = 23° C., 10 gms sunscreen in 100 gms mixture
# [11] = 30° C., 10 gms sunscreen in 100 gms mixture
# [12] = 30° C., 15 gms sunscreen in 100 gms mixture
compound,measurement,setting,value
"CCCCCCCCCCCCCCCCOC(=O)CCCCCCC/C=C\C[C@H](O)CCCCCC [CR, Cetyl Ricinoleate, reference compound]",Viscosity reading of dispersion,[1]; pass 1,Out of instrument range
same,Viscosity reading of dispersion,[1]; pass 2,Out of instrument range
same,Viscosity reading of dispersion,[1]; pass 3,Out of instrument range
same,Viscosity reading of dispersion,[1]; pass 4,Out of instrument range
same,Viscosity reading of dispersion,[1]; pass 5,Out of instrument range
same,Viscosity reading of dispersion,[1]; pass 6,Out of instrument range
same,"Refractive Index, Typical",[2],1.4580
same,Hagman reading (particle size),[3]; pass 1,≤ 93 μm
same,Hagman reading (particle size),[3]; pass 2,≤ 80 μm
same,Hagman reading (particle size),[3]; pass 3,≤ 80 μm
same,Hagman reading (particle size),[3]; pass 4,≤ 76 μm
same,Hagman reading (particle size),[3]; pass 5,≤ 50 μm
same,Hagman reading (particle size),[3]; pass 6,≤ 43 μm
same,Viscosity reading of dispersion,[4]; pass 1,Out of instrument range
same,Viscosity reading of dispersion,[4]; pass 2,Out of instrument range
same,Viscosity reading of dispersion,[4]; pass 3,Out of instrument range
same,Viscosity reading of dispersion,[4]; pass 4,Out of instrument range
same,Viscosity reading of dispersion,[4]; pass 5,Out of instrument range
same,Viscosity reading of dispersion,[4]; pass 6,Out of instrument range
same,Hagman reading (particle size),[5]; pass 1,≤ 39 μm
same,Hagman reading (particle size),[5]; pass 2,≤ 36 μm
same,Hagman reading (particle size),[5]; pass 3,≤ 30 μm
same,Hagman reading (particle size),[5]; pass 4,≤ 26 μm
same,Hagman reading (particle size),[5]; pass 5,≤ 18 μm
same,Hagman reading (particle size),[5]; pass 6,≤ 14 μm
same,Sunscreen solubility (Parsol 1789),[6]; [10],+
same,Sunscreen solubility (Parsol 1789),[6]; [11],+
same,Sunscreen solubility (Parsol 1789),[6]; [12],+
same,Color,[7],light yellow
same,S.G. (specific gravity),[7]; 25° C.,0.874
same,VISCOSITY,"[7]; Brookfield Viscometer, Spindle # 1, 10 rpm",65 cps
same,REFRACTIVE INDEX,[7]; Table II,1.4580
same,Sunscreen solubility (Benzophenone-3),[8]; [10],+
same,Sunscreen solubility (Benzophenone-3),[8]; [11],+
same,Sunscreen solubility (Benzophenone-3),[8]; [12],+
same,Hagman reading (particle size),[9]; pass 1,≤ 49 μm
same,Hagman reading (particle size),[9]; pass 2,≤ 48 μm
same,Hagman reading (particle size),[9]; pass 3,≤ 40 μm
same,Hagman reading (particle size),[9]; pass 4,≤ 38 μm
same,Hagman reading (particle size),[9]; pass 5,≤ 33 μm
same,Hagman reading (particle size),[9]; pass 6,≤ 30 μm
